Eleven molecules from ChEMBL document CHEMBL1201862, “PubChem BioAssay data set” (2004) can be followed below.

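96-well plates; 48 h exposure; 5 concentrations. Endpoints by linear interpolation between flanking doses. Not reached: highest tested concentration assigned. GI50 is the concentration that inhibits growth by half.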 Activity calls are given as the source filed them. No stated cut-off is given here; in the data, active = GI50 up to about 1.1 µM and inactive = higher.

Test systems include HOP-62; MDA-N; NCI-H23; NCI-H226; OVCAR-3; UACC-62; SW-620; DU-145; OVCAR-5; HOP-92; CCRF-CEM; EKVX; K562; OVCAR-8; SNB-75; SF-295; SK-MEL-28; MOLT-4; HCT-116.
Holding throughout (assay): growth of human tumour cells (NCI), 48 h

Take `C[C@@H](c1ccccc1)C(CC#N)[C@H]1CCC[C@]1(O)C#Cc1ccc2c(c1)OCO2` (some centres undefined): the GI50 in the experiment on HOP-62 was 16.8 µM (inactive); in the experiment with MDA-N, 16.7 µM (inactive); in the experiment with NCI-H23, 17.7 µM (inactive); in the experiment with NCI-H226, 17.5 µM (inactive); in the experiment on OVCAR-3 it was 15.6 µM (inactive); with UACC-62 it was 16.6 µM (inactive). Also, the GI50 with SW-620 was 17.9 µM (inactive); in the experiment with DU-145, 16.8 µM (inactive); in the experiment with OVCAR-5, 16.6 µM (inactive); in the experiment on HOP-92, 14 µM (inactive); in the experiment with CCRF-CEM, 14.8 µM (inactive); in the experiment with EKVX it was 19.5 µM (inactive). Moreover, the GI50 with K562 is 18.1 µM (inactive); in the experiment with OVCAR-8 it was 16.9 µM (inactive); in the experiment on SNB-75 it was 16.5 µM (inactive); with SF-295, 18.1 µM (inactive); with SK-MEL-28, 16.1 µM (inactive); in the experiment on MOLT-4, 8.02 µM (inactive).
For the molecule `CCOC(=O)C(NC(=O)c1cccc(Cl)c1)(N1CCN(c2cc3c(cc2F)c(=O)c(C(=O)O)cn3CC)CC1)C(F)(F)F` (centres undefined), the GI50 is 20.5 µM (inactive) with HOP-62; 14.9 µM (inactive) in the experiment with MDA-N; 18 µM (inactive) in the experiment on NCI-H23; 18.2 µM (inactive) in the experiment with NCI-H226; 14.8 µM (inactive) in the experiment with OVCAR-3; 16.4 µM (inactive) in the experiment with UACC-62. Also, the GI50 in the experiment with SW-620 was 12.9 µM (inactive); in the experiment with DU-145, 25.4 µM (inactive); in the experiment with OVCAR-5, 17.4 µM (inactive); in the experiment on HOP-92, 13.8 µM (inactive); with CCRF-CEM, 2.61 µM (inactive); with EKVX, 17.1 µM (inactive). Further, the GI50 in the experiment on K562 was 5.73 µM (inactive); with OVCAR-8, 16.6 µM (inactive); in the experiment on SNB-75, 21.4 µM (inactive); with HCT-116, 14 µM (inactive); with SF-295, 18.7 µM (inactive); in the experiment with SK-MEL-28, 17 µM (inactive). Further, in the experiment with MOLT-4, the GI50 was 3.85 µM (inactive).
Take `COC(=O)C1=CSC2(S1)C(C(=O)OC)=CSc1c2ssc1=O` (centres undefined): the GI50 with HOP-62 is 3.06 µM (inactive); with MDA-N it was 2.13 µM (inactive); with NCI-H23 it was 2 µM (inactive); in the experiment on NCI-H226, 22.7 µM (inactive); in the experiment on OVCAR-3, 1.81 µM (inactive); with UACC-62 it was 1.96 µM (inactive). In addition, the GI50 in the experiment on SW-620 is 1.33 µM (inactive); in the experiment with DU-145 it was 1.73 µM (inactive); with OVCAR-5, 8.15 µM (inactive); with HOP-92, 2.07 µM (inactive); in the experiment on CCRF-CEM, 0.762 µM (active); in the experiment with EKVX, 5.98 µM (inactive). Also, the GI50 in the experiment with K562 is 1.95 µM (inactive); in the experiment on OVCAR-8 it was 2.34 µM (inactive); with SNB-75, 3.22 µM (inactive); in the experiment with HCT-116 it was 1.61 µM (inactive); in the experiment with SF-295, 16.3 µM (inactive); in the experiment with SK-MEL-28 it was 1.97 µM (inactive). Moreover, the GI50 in the experiment on MOLT-4 is 1.97 µM (inactive).
Take `O=C(O)c1nc2ccccc2nc1NCc1ccc(F)cc1`: the GI50 is > 100 µM (inactive) in the experiment on HOP-62; > 100 µM (inactive) in the experiment on MDA-N; 54 µM (inactive) in the experiment with NCI-H23; 51.6 µM (inactive) in the experiment on NCI-H226; 42.2 µM (inactive) in the experiment with OVCAR-3; > 100 µM (inactive) in the experiment with UACC-62. Also, the GI50 with SW-620 is 63.8 µM (inactive); with DU-145, 99.8 µM (inactive); with OVCAR-5 it was > 100 µM (inactive); in the experiment with HOP-92, 95.1 µM (inactive); in the experiment on CCRF-CEM it was 50.5 µM (inactive); with EKVX it was 45.8 µM (inactive). Further, the GI50 with K562 is 56.1 µM (inactive); in the experiment with OVCAR-8, 53.2 µM (inactive); with SNB-75 it was > 100 µM (inactive); in the experiment with HCT-116 it was 41.6 µM (inactive); in the experiment with SF-295 it was 38 µM (inactive); in the experiment on SK-MEL-28, > 100 µM (inactive). For the same molecule, the GI50 with MOLT-4 is 67 µM (inactive).
Regarding `CC(C)(C)c1cc(C2COC(=O)COCC(=O)OCCOCCOCCO2)cc(C(C)(C)C)c1O` (centres undefined), the GI50 in the experiment on HOP-62 was 46.7 µM (inactive); in the experiment on MDA-N it was 19.6 µM (inactive); in the experiment on NCI-H23, > 77.6 µM (inactive); with NCI-H226 it was > 100 µM (inactive); in the experiment on OVCAR-3, > 100 µM (inactive); with UACC-62, 27.2 µM (inactive). Also, the GI50 in the experiment with SW-620 is > 65.8 µM (inactive); in the experiment with DU-145, 21 µM (inactive); in the experiment with OVCAR-5 it was 28.4 µM (inactive); in the experiment with HOP-92 it was 22.9 µM (inactive); in the experiment on CCRF-CEM, > 100 µM (inactive); in the experiment with EKVX, > 75.7 µM (inactive). Further, the GI50 in the experiment with K562 was > 100 µM (inactive); with OVCAR-8, 62.4 µM (inactive); in the experiment on SNB-75 it was 16.1 µM (inactive); with HCT-116 it was > 100 µM (inactive); in the experiment with SF-295, 23.6 µM (inactive); with SK-MEL-28 it was 19.2 µM (inactive). In the experiment on MOLT-4, the GI50 is > 100 µM (inactive).
For the molecule `OC1(c2ccc(Cl)cc2)c2ccccc2C2=Nc3ccccc3CN21` (centres undefined), the GI50 in the experiment with HOP-62 is 12.9 µM (inactive); with MDA-N, > 70 µM (inactive); in the experiment with NCI-H23, > 44.9 µM (inactive); in the experiment with NCI-H226, 37.8 µM (inactive); in the experiment on OVCAR-3, 2.96 µM (inactive); with UACC-62, > 86.9 µM (inactive). Also, the GI50 with SW-620 is 26.9 µM (inactive); in the experiment with DU-145, 36.2 µM (inactive); in the experiment with OVCAR-5 it was > 75.2 µM (inactive); in the experiment with HOP-92 it was > 60.3 µM (inactive); in the experiment with CCRF-CEM it was > 65.9 µM (inactive); with EKVX it was > 45.2 µM (inactive). Moreover, the GI50 in the experiment on K562 was > 100 µM (inactive); in the experiment with OVCAR-8, 13.2 µM (inactive); with SNB-75 it was 17.8 µM (inactive); with HCT-116 it was 6.9 µM (inactive); with SF-295, 20.4 µM (inactive); with SK-MEL-28 it was 29 µM (inactive). Moreover, the GI50 in the experiment on MOLT-4 was 61.8 µM (inactive).
In the case of `CC1=C(C)SC(=C2Sc3c(n(C)c(=O)[nH]c3=O)S2)S1`, the GI50 in the experiment on HOP-62, in the experiment on MDA-N, with NCI-H23, in the experiment with NCI-H226, in the experiment with OVCAR-3 and with UACC-62 was > 100 µM (inactive) each time. Further, the GI50 with SW-620, with DU-145, with OVCAR-5, with HOP-92, with CCRF-CEM and with EKVX was > 100 µM (inactive) in each case. The GI50 with K562, with OVCAR-8, in the experiment on SNB-75, with HCT-116, in the experiment with SF-295 and with SK-MEL-28 was > 100 µM (inactive) throughout. Besides, the GI50 in the experiment with MOLT-4 is > 100 µM (inactive).
Turning to `Nc1ccn([C@H]2CO[C@@H](CO)[C@@H]2O)c(=O)n1`, the GI50 with HOP-62, with MDA-N, in the experiment with NCI-H23, in the experiment on NCI-H226, in the experiment with OVCAR-3 and in the experiment with UACC-62 was > 100 µM (inactive) in each case. Moreover, the GI50 in the experiment on SW-620, in the experiment with DU-145, in the experiment with OVCAR-5, in the experiment on HOP-92, with CCRF-CEM and with EKVX was > 100 µM (inactive) in each case. In addition, the GI50 with K562, in the experiment on SNB-75, in the experiment on HCT-116, in the experiment with SF-295, with SK-MEL-28 and in the experiment on MOLT-4 was > 100 µM (inactive) in each case.
For `Cc1cc(-c2nc3cccc(O)c3s2)ccc1N`, the GI50 was 27 µM (inactive) in the experiment with HOP-62; 31.3 µM (inactive) with MDA-N; 24.6 µM (inactive) in the experiment with NCI-H23; 45.1 µM (inactive) with NCI-H226; 44.4 µM (inactive) in the experiment on OVCAR-3; 16.3 µM (inactive) in the experiment with UACC-62. For the same molecule, the GI50 was 46.9 µM (inactive) in the experiment with SW-620; > 100 µM (inactive) in the experiment on DU-145; 43.8 µM (inactive) in the experiment on HOP-92; 25.8 µM (inactive) in the experiment on CCRF-CEM; 15.7 µM (inactive) in the experiment with EKVX; 45.4 µM (inactive) with K562. Besides, the GI50 in the experiment with OVCAR-8 is 24.2 µM (inactive); in the experiment with SNB-75, > 100 µM (inactive); in the experiment with HCT-116 it was 27.3 µM (inactive); with SF-295, 28.8 µM (inactive); in the experiment with SK-MEL-28, 51.4 µM (inactive); in the experiment on MOLT-4 it was 28.2 µM (inactive).
For `CCCC[C@@H](C)/C=C1\CN2CCC[C@H]2[C@@](C)(O)[C@@H]1O`, the GI50 was 52.1 µM (inactive) in the experiment on HOP-62; > 100 µM (inactive) with MDA-N; 32.9 µM (inactive) in the experiment on NCI-H23; > 100 µM (inactive) in the experiment with NCI-H226; > 100 µM (inactive) in the experiment on OVCAR-3; 38.7 µM (inactive) with UACC-62. The GI50 with SW-620 was > 100 µM (inactive); in the experiment on DU-145 it was 17.3 µM (inactive); in the experiment on OVCAR-5 it was > 100 µM (inactive); in the experiment with HOP-92, 17.2 µM (inactive); in the experiment on CCRF-CEM, 12.3 µM (inactive); in the experiment on EKVX, > 100 µM (inactive). For the same molecule, the GI50 is > 100 µM (inactive) with K562; 65.5 µM (inactive) with OVCAR-8; 20.2 µM (inactive) in the experiment with SNB-75; 55.7 µM (inactive) in the experiment with SF-295; > 100 µM (inactive) in the experiment with SK-MEL-28; > 100 µM (inactive) in the experiment on MOLT-4.
For the molecule `CN(/N=C/c1ccc(Cl)c(Cl)c1)C1=NCCCCN1`, the GI50 was 16.7 µM (inactive) in the experiment with HOP-62; 19.9 µM (inactive) in the experiment on MDA-N; 55.5 µM (inactive) in the experiment on NCI-H23; 2.45 µM (inactive) in the experiment on NCI-H226; 41.6 µM (inactive) with OVCAR-3; 23 µM (inactive) in the experiment with UACC-62. Further, the GI50 is 15.6 µM (inactive) in the experiment with SW-620; 91.2 µM (inactive) with DU-145; 27.9 µM (inactive) with OVCAR-5; 18.9 µM (inactive) with HOP-92; 31 µM (inactive) in the experiment with CCRF-CEM; > 100 µM (inactive) in the experiment on EKVX. The GI50 was 21.4 µM (inactive) in the experiment on K562; 72.3 µM (inactive) in the experiment on OVCAR-8; 50.2 µM (inactive) in the experiment with SNB-75; 24.4 µM (inactive) in the experiment on HCT-116; 34.4 µM (inactive) in the experiment with SF-295; 21.8 µM (inactive) with MOLT-4.
